Measurements reported in patent US4950677A, “Benzimidazole derivative compounds and method of making” (Hoffmann-La Roche Inc., priority 1987, dated 1990).
Read-outs that look alike come from different tables or passages of the source.

What was measured:
[1] = test system: indomethacin-induced lesions of the stomach; assay: anti-ulcer activity (protection from indomethacin-induced stomach lesions); type: in vivo; settings: Rattus norvegicus, po, male rats, given 1 hour before and 2 hours after 20 mg/kg indomethacin p.o.; dosage protecting 50% of animals from lesions
Experimental: The experimental procedure described hereinafter was used to determine the anti-ulcer activity:
A number of groups of 8 male rats each with a body weight of 130-150 g are used for each dosage of a test substance. Prior to the beginning of the experiment the animals receive no food for 24 hours, but receive water ad libitum. Various dosages of the substances to be tested (suspended in 0.5% tragacanth) or the vehicle alone (controls) are administered twice perorally, namely. 1 hour before and 2 hours after the peroral administration 20 mg/kg of indomethacin. In the control animals, this dosage of indomethacin leads to lesions of the stomach within 5 hours. The animals are killed 6 hours after the first administration of the substance under investigation (or of the vehicle alone). The rats which remain protected from the occurrence of macroscopically visible lesions to the mucous membrane of the stomach are counted. The ED50 is that dosage of a test substance at which 50% of the animals are protected from the occurence of such lesions.
(§1) In the following Table there are given for a series of representative compounds of formula I the results of the testing with respect to their anti-ulcer activity and to their gastric secretion inhibiting activity. Moreover, this Table contains data concerning the acute toxicity (LD50 in the case of single oral administration to mice).

[2] = test system: gastric acid production caused by 4-methylhistamine; assay: gastric acid secretion-inhibiting activity (4-methylhistamine-stimulated, Heidenhain pouch); type: in vivo; settings: Canis lupus familiaris, po; p.o. (dry powder in gelatin capsules), conscious beagle hounds, i.v. infusion of 4-methylhistamine; 50% inhibition vs controls
Experimental: The experimental procedure described hereinafter was used to determine the gastric acid secretion-inhibiting activity:
A part of the stomach fundus of female and male beagle hounds is separated from the remainder of the stomach in the form of a pouch of the Heidenhain type by a modification of the method described in Rudick et al., J. Surgical Research 7, 383-398 (1967). In the pouch there is fitted a steel cannula which is conducted externally through the abdominal wall. Before each experiment the animals receive no food for 18 hours, but receive water ad libitum. They are conscious and standing during the experiment and their gastric acid secretion is stimulated by the intravenous infusion of 4-methylhistamine, a selective […] of the histamine H2 -receptors. The gastric acid production is determined in 15 minute fractions of the stomach pouch juice. As soon as the gastric acid production has a constant value, the substances to be tested are administered orally as a dry powder filled into gelatin capsules. The ED50 is that dosage of a test substance which brings about a 50% inhibition of the gastric acid production caused by 4-methylhistamine in the treated animals in comparison to the controls.
as §1

[3] = acute toxicity (single oral administration); settings: mouse, in vivo, read-out: Toxicity LD 50
Excerpt: as §1

[4] = p.o., single oral administration to mice

Row | SMILES | ED50 [1] [mg/kg] | ED50 [2] [mg/kg] | LD50 [3, 4] [mg/kg] | LD50 ([3]; po) [mg/kg]
1 | CCOC(C)(C)CSCc1c(C)c(OC)cc[n+]1-c1nc2ccc(C(F)(F)F)cc2[nH]1.CS(=O)(=O)[O-] [H, 2-[[(2-Ethoxy-2-methylpropyl)thio]methyl]-4-methoxy-3-methyl-1-[5-(trifluoromethyl)-2-benzimidazolyl]pyridinium methanesulfonate] | 3.2 | 4.3 | – | –
2 | COc1cc[n+](-c2nc3ccc(C(F)(F)F)cc3[nH]2)c(CSCC(C)(C)OC(C)=O)c1C.[Cl-] [F, 2-[[(2-Acetoxy-2-methylpropyl)thio]methyl]-4-methoxy-3-methyl-1-[5-(trifluoromethyl)-2-benzimidazolyl]pyridinium chloride] | 1.9 | 1.8 | 1250 to 2500 | –
3 | CCOC(C)(C)CSCc1c(C)c(OC)cc[n+]1-c1nc2ccc(C(F)(F)F)cc2[nH]1.[Cl-] [I, 2-[[(2-Ethoxy-2-methylpropyl)thio]methyl]-4-methoxy-3-methyl-1-[5-(trifluoromethyl)-2-benzimidazolyl]pyridinium chloride] | 4.1 | 3.8 | 2500 to 5000 | –
4 | COc1cc[n+](-c2nc3ccc(C(F)(F)F)cc3[nH]2)c(CSCC(C)(C)OC(C)=O)c1C.CS(=O)(=O)[O-] [E, 2-[[(2-Acetoxy-2-methylpropyl)thio]methyl]-4-methoxy-3-methyl-1-[5-(trifluoromethyl)-2-benzimidazolyl]pyridinium methanesulfonate] | 3.2 | 3 | 2500 to 5000 | –
5 | CCOC(C)(C)CSCc1c(C)c(OC)cc[n+]1-c1nc2cc(C(F)(F)F)ccc2[n-]1 [J, Intramolecularly deprotonized 2-[[(2-ethoxy-2-methylpropyl)thio]methyl]-4-methoxy-3-methyl-1-[5-(trifluoromethyl)-2-benzimidazolyl]pyridinium cation] | 4.6 | 3.7 | – | > 5000
6 | COc1cc[n+](-c2nc3ccc(C(F)(F)F)cc3[nH]2)c(CSCC(C)(C)OCCO)c1C.CS(=O)(=O)[O-] [A, 2-[[[2-(2-Hydroxyethoxy)-2-methylpropyl]thio]-methyl]-4-methoxy-3-methyl-1-[5-(trifluoromethyl)-2-benzimidazolyl]pyridinium methanesulfonate] | 4.4 | 4.9 | 2500 to 5000 | –
7 | COc1cc[n+](-c2nc3cc(C(F)(F)F)ccc3[n-]2)c(CSCC(C)(C)OC(C)=O)c1C [G, Intramolecularly deprotonized 2-[[(2-acetoxy-2-methylpropyl)thio]methyl]-4-methoxy-3-methyl-1-[5-(trifluoromethyl)-2-benzimidazolyl]pyridinium cation] | 2.8 | 1.5 | – | 2500 to 5000
8 | COc1cc[n+](-c2nc3cc(C(F)(F)F)ccc3[n-]2)c(CSCC(C)(C)OCCO)c1C [B, Intramolecularly deprotonized 2-[[[2-(2-hydroxyethoxy)-2-methylpropyl]thio]methyl]-4-methoxy-3-methyl-1-[5-(trifluoromethyl)-2-benzimidazolyl]pyridinium cation] | 6.1 | 3.9 | – | 2500 to 5000
9 | COCCOC(C)(C)CSCc1c(C)c(OC)cc[n+]1-c1nc2ccc(C(F)(F)F)cc2[nH]1.CS(=O)(=O)[O-] [C, 4-Methoxy-2-[[[2-(2-methoxyethoxy)-2-methylpropyl}thio]methyl]-3-methyl-1-[5-(trifluoromethyl)-2-benzimidazolyl]pyridinium methanesulfonate] | 6 | 5.5 | 1000 to 2000 | –
10 | COCCOC(C)(C)CSCc1c(C)c(OC)cc[n+]1-c1nc2cc(C(F)(F)F)ccc2[n-]1 [D, Intramolecularly deprotonized 4-methoxy-2-[[[2-(2-methoxyethoxy)-2-methylpropyl]thio]methyl]-3-methyl-1-[5-(trifluoromethyl)-2-benzimidazolyl]pyridinium cation] | 7 | 4.8 | – | 2500 to 5000
